# Measured values from patent US6706663B2, “Herbicidal 3-heterocyclic substituted benzisothiazole and benzisoxazole compounds” (Wyeth, priority 2000, dated 2004).
# What was measured:
# [1] = system: ABUTH (Abutilon theophrasti); assay: Postemergence herbicidal evaluation; assay type: in vivo, Medic.
# Summary of the method: (§1)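 Seedlings grown about two weeks in flats, sprayed, then kept under standard greenhouse care. Rated visually 4–5 weeks after treatment on a 0–9 scale (stand, vigour, malformation, size, chlorosis, overall appearance) relative to untreated control; repeat tests averaged.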
# [2] = system: AMBEL (Ambrosia artemisifolia); assay: Postemergence herbicidal evaluation; assay type: in vivo, L.
# Summary of the method: as §1
# [3] = system: CASOB (Cassia obtusifolia); assay: Postemergence herbicidal evaluation; assay type: in vivo, L.
# Summary of the method: as §1
# [4] = system: CHEAL (Chenopodium album); assay: Postemergence herbicidal evaluation; assay type: in vivo, L.
# Summary of the method: as §1
# [5] = system: IPOHE (Ipomoea hederacea); assay: Postemergence herbicidal evaluation; assay type: in vivo, (L.) Jacq.
# Summary of the method: as §1
# [6] = system: ECHCG (Echinochloa crus-galli); assay: Postemergence herbicidal evaluation; assay type: in vivo, (L.) Beau
# Summary of the method: as §1
# ORYSAT (Rice, Tebonnet) [7] = assay: Postemergence herbicidal evaluation; assay type: in vivo, Oryza sativa, (L.) Tebonnet
# Summary of the method: as §1
# [8] = system: TRZAWR (Wheat, Winter, cv Riband); assay: Postemergence herbicidal evaluation; assay type: in vivo, Triticum aestivum
# Summary of the method: as §1
# ZEAMX (Corn, Field) = assay: Postemergence herbicidal evaluation; assay type: in vivo, Zea mays, L.
# Summary of the method: as §1
# [9] = system: ABUTH (Abutilon theophrasti); assay: Preemergence herbicidal evaluation; assay type: in vivo, Medic.; conditions: preemergence, rated 4-5 weeks after treatment
# [10] = system: AMBEL (Ambrosia artemisifolia); assay: Preemergence herbicidal evaluation; assay type: in vivo, L.; conditions: preemergence, rated 4-5 weeks after treatment
# Summary of the method: (§2)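 Applied before emergence as an aqueous acetone spray over seeded soil. Read-out: 0–9 visual rating covering plant stand, vigor, size, chlorosis, malformation and overall appearance compared with control, taken 4–5 weeks after spraying.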
# [11] = system: CASOB (Cassia obtusifolia); assay: Preemergence herbicidal evaluation; assay type: in vivo, L.; conditions: preemergence, rated 4-5 weeks after treatment
# Summary of the method: as §2
# [12] = system: CHEAL (Chenopodium album); assay: Preemergence herbicidal evaluation; assay type: in vivo, L.; conditions: preemergence, rated 4-5 weeks after treatment
# Summary of the method: as §2
# ORYSAT (Rice, Tebonnet) [13] = assay: Preemergence herbicidal evaluation; assay type: in vivo, Oryza sativa, (L.) Tebonnet; conditions: preemergence, rated 4-5 weeks after treatment
# [14] = system: TRZAWR (Wheat, Winter, cv Riband); assay: Preemergence herbicidal evaluation; assay type: in vivo, Triticum aestivum; conditions: preemergence, rated 4-5 weeks after treatment
# Summary of the method: as §2
# [15] = system: ECHORC (Echinochloa oryzoides); assay: Flooded paddy, preemergence weed control; assay type: in vivo, Echinochloa oryzoides (Ard.) Fritsch.; conditions: rated 3-4 weeks after treatment, 0-9 rating scale
# Summary of the method: (§3)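 Greenhouse paddy test, preemergence. Seeds planted in the top 0.5 cm of silt loam soil, which remained flooded at 1.5–3 cm depth. Scored 0-9 by visual comparison with control.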
# [16] = system: CYPSE (Cyperus serotinus); assay: Flooded paddy, preemergence weed control; assay type: in vivo, Rottb.; conditions: rated 3-4 weeks after treatment, 0-9 rating scale
# Summary of the method: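 Herbicidal effect was scored visually on a 0–9 scale against an untreated control 3–4 weeks after treatment. Compounds were applied preemergence as 50/50 v/v aqueous/acetone mixtures into flood water (1.5–3 cm deep over silt loam), at roughly 0.0080 to 0.1250 kg/ha active ingredient.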
# [17] = system: SAGPY (Sagittaria pygmaea); assay: Flooded paddy, preemergence weed control; assay type: in vivo, L.; conditions: rated 3-4 weeks after treatment, 0-9 rating scale
# Summary of the method: as §3
# ORYSAT (Rice, Tebonnet) [18] = assay: Flooded paddy, post-transplant rice tolerance; assay type: in vivo, Oryza sativa, (L.) Tebonnet; conditions: flooded paddy, post-transplant rice, rated 3-4 weeks after treatment, 0-9 rating scale
# Summary of the method: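 Visual 0–9 injury rating against a control, covering stand, vigor, malformation, size, chlorosis and overall appearance. Treatment was post-transplant onto flooded containers (water 1.5–3 cm deep, silt loam) holding two ten-day-old cv. Tebonnet seedlings, maintained on greenhouse benches.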
compound,measurement,setting,value
"COc1ccsc1-c1nsc2ccc(-n3c(=O)cc(C(F)(F)F)n(C)c3=O)cc12 [Compound 10, 3-[3-(3-methoxy-2-thienyl)-1,2-benzisothiazol-5-yl]-1-methyl-6-(trifluoromethyl)uracil]","Postemergence herbicidal rating, ABUTH",[1]; rate 0.0320 kg/ha,8.0
same,"Postemergence herbicidal rating, ABUTH",[1]; rate 0.0620 kg/ha,8.0
same,"Postemergence herbicidal rating, ABUTH",[1]; rate 0.1250 kg/ha,9.0
same,"Postemergence herbicidal rating, AMBEL",[2]; rate 0.0320 kg/ha,2.0
same,"Postemergence herbicidal rating, AMBEL",[2]; rate 0.0620 kg/ha,3.0
same,"Postemergence herbicidal rating, AMBEL",[2]; rate 0.1250 kg/ha,9.0
same,"Postemergence herbicidal rating, CASOB",[3]; rate 0.0320 kg/ha,0.0
same,"Postemergence herbicidal rating, CASOB",[3]; rate 0.0620 kg/ha,0.0
same,"Postemergence herbicidal rating, CASOB",[3]; rate 0.1250 kg/ha,1.0
same,"Postemergence herbicidal rating, CHEAL",[4]; rate 0.0320 kg/ha,1.0
same,"Postemergence herbicidal rating, CHEAL",[4]; rate 0.0620 kg/ha,1.0
same,"Postemergence herbicidal rating, CHEAL",[4]; rate 0.1250 kg/ha,4.0
same,"Postemergence herbicidal rating, IPOHE",[5]; rate 0.0320 kg/ha,2.0
same,"Postemergence herbicidal rating, IPOHE",[5]; rate 0.0620 kg/ha,2.0
same,"Postemergence herbicidal rating, IPOHE",[5]; rate 0.1250 kg/ha,7.0
same,"Postemergence herbicidal rating, ECHCG",[6]; rate 0.0320 kg/ha,0.0
same,"Postemergence herbicidal rating, ECHCG",[6]; rate 0.0620 kg/ha,0.0
same,"Postemergence herbicidal rating, ECHCG",[6]; rate 0.1250 kg/ha,0.0
same,"Postemergence herbicidal rating, ORYSAT","ORYSAT (Rice, Tebonnet) [7]; rate 0.0320 kg/ha",1.3
same,"Postemergence herbicidal rating, ORYSAT","ORYSAT (Rice, Tebonnet) [7]; rate 0.0620 kg/ha",1.8
same,"Postemergence herbicidal rating, ORYSAT","ORYSAT (Rice, Tebonnet) [7]; rate 0.1250 kg/ha",3.0
same,"Postemergence herbicidal rating, TRZAWR",[8]; rate 0.0320 kg/ha,2.5
same,"Postemergence herbicidal rating, TRZAWR",[8]; rate 0.0620 kg/ha,2.8
same,"Postemergence herbicidal rating, TRZAWR",[8]; rate 0.1250 kg/ha,4.0
same,"Postemergence herbicidal rating, ZEAMX","ZEAMX (Corn, Field); rate 0.0320 kg/ha",3.8
same,"Postemergence herbicidal rating, ZEAMX","ZEAMX (Corn, Field); rate 0.0620 kg/ha",5.0
same,"Postemergence herbicidal rating, ZEAMX","ZEAMX (Corn, Field); rate 0.1250 kg/ha",5.0
same,ABUTH preemergence herbicidal rating,[9]; Rate 0.0620 kg/ha,7.0
same,ABUTH preemergence herbicidal rating,[9]; Rate 0.1250 kg/ha,9.0
same,ABUTH preemergence herbicidal rating,[9]; Rate 0.2500 kg/ha,9.0
same,AMBEL preemergence herbicidal rating,[10]; Rate 0.0620 kg/ha,4.0
same,AMBEL preemergence herbicidal rating,[10]; Rate 0.1250 kg/ha,6.0
same,AMBEL preemergence herbicidal rating,[10]; Rate 0.2500 kg/ha,7.0
same,CASOB preemergence herbicidal rating,[11]; Rate 0.0620 kg/ha,0.5
same,CASOB preemergence herbicidal rating,[11]; Rate 0.1250 kg/ha,1.0
same,CASOB preemergence herbicidal rating,[11]; Rate 0.2500 kg/ha,1.0
same,CHEAL preemergence herbicidal rating,[12]; Rate 0.0620 kg/ha,8.0
same,CHEAL preemergence herbicidal rating,[12]; Rate 0.1250 kg/ha,9.0
same,CHEAL preemergence herbicidal rating,[12]; Rate 0.2500 kg/ha,9.0
same,ORYSAT preemergence herbicidal rating,"ORYSAT (Rice, Tebonnet) [13]; Rate 0.0620 kg/ha",1.0
same,ORYSAT preemergence herbicidal rating,"ORYSAT (Rice, Tebonnet) [13]; Rate 0.1250 kg/ha",3.0
same,ORYSAT preemergence herbicidal rating,"ORYSAT (Rice, Tebonnet) [13]; Rate 0.2500 kg/ha",7.0
same,TRZAWR preemergence herbicidal rating,[14]; Rate 0.0620 kg/ha,1.5
same,TRZAWR preemergence herbicidal rating,[14]; Rate 0.1250 kg/ha,4.5
same,TRZAWR preemergence herbicidal rating,[14]; Rate 0.2500 kg/ha,7.0
same,"herbicidal rating, ECHORC",[15]; rate 0.0320 kg/ha,0.0
same,"herbicidal rating, ECHORC",[15]; rate 0.1250 kg/ha,5.0
same,"herbicidal rating, CYPSE",[16]; rate 0.0320 kg/ha,0.0
same,"herbicidal rating, CYPSE",[16]; rate 0.1250 kg/ha,0.0
same,"herbicidal rating, SAGPY",[17]; rate 0.0320 kg/ha,0.0
same,"herbicidal rating, SAGPY",[17]; rate 0.1250 kg/ha,0.0
same,"herbicidal rating, ORYSAT (rice tolerance)","ORYSAT (Rice, Tebonnet) [18]; rate 0.0320 kg/ha",0.0
same,"herbicidal rating, ORYSAT (rice tolerance)","ORYSAT (Rice, Tebonnet) [18]; rate 0.1250 kg/ha",4.0
"Cn1c(C(F)(F)F)cc(=O)n(-c2ccc3snc(-c4ncccn4)c3c2)c1=O [Compound 12, 1-methyl-3-[3-(2-pyrimidinyl)-1,2-benzisothiazol-5-yl]-6-(trifluoromethyl)uracil]","Postemergence herbicidal rating, ABUTH",[1]; rate 0.0620 kg/ha,9.0
same,"Postemergence herbicidal rating, AMBEL",[2]; rate 0.0620 kg/ha,9.0
same,"Postemergence herbicidal rating, CASOB",[3]; rate 0.0620 kg/ha,9.0
same,"Postemergence herbicidal rating, CHEAL",[4]; rate 0.0620 kg/ha,9.0
same,"Postemergence herbicidal rating, IPOHE",[5]; rate 0.0620 kg/ha,9.0
same,"Postemergence herbicidal rating, ECHCG",[6]; rate 0.0620 kg/ha,4.0
same,"Postemergence herbicidal rating, ORYSAT","ORYSAT (Rice, Tebonnet) [7]; rate 0.0620 kg/ha",6.0
same,"Postemergence herbicidal rating, TRZAWR",[8]; rate 0.0620 kg/ha,6.0
same,"Postemergence herbicidal rating, ZEAMX","ZEAMX (Corn, Field); rate 0.0620 kg/ha",5.5
same,ABUTH preemergence herbicidal rating,[9]; Rate 0.2500 kg/ha,9.0
same,AMBEL preemergence herbicidal rating,[10]; Rate 0.2500 kg/ha,9.0
same,CASOB preemergence herbicidal rating,[11]; Rate 0.2500 kg/ha,8.5
same,CHEAL preemergence herbicidal rating,[12]; Rate 0.2500 kg/ha,9.0
same,ORYSAT preemergence herbicidal rating,"ORYSAT (Rice, Tebonnet) [13]; Rate 0.2500 kg/ha",8.5
same,TRZAWR preemergence herbicidal rating,[14]; Rate 0.2500 kg/ha,9.0
same,"herbicidal rating, ECHORC",[15]; rate 0.1250 kg/ha,8.7
same,"herbicidal rating, CYPSE",[16]; rate 0.1250 kg/ha,7.0
same,"herbicidal rating, SAGPY",[17]; rate 0.1250 kg/ha,3.7
same,"herbicidal rating, ORYSAT (rice tolerance)","ORYSAT (Rice, Tebonnet) [18]; rate 0.1250 kg/ha",7.0
